Assay results published in paper PMC8788362, “Rational design and synthesis of 2-(1H-indazol-6-yl)-1H-benzo[d]imidazole derivatives as inhibitors targeting FMS-like tyrosine kinase 3 (FLT3) and its mutants” (Journal of Enzyme Inhibition and Medicinal Chemistry, 2022).
Positions count from the first letter of the chain named. Where two headings read alike, the source gives them in different places.

Tests used:
[1] = target: T1, FLT3 (D835Y) (Homo sapiens, UniProt P36888, D835Y); test: Reaction Biology Kinase HotSpot radiometric kinase assay; type: biochemical
T1 construct: purchased Reaction Biology Corp. (Kinase HotSpot service)
T1 sequence (P36888 27-993 D835Y): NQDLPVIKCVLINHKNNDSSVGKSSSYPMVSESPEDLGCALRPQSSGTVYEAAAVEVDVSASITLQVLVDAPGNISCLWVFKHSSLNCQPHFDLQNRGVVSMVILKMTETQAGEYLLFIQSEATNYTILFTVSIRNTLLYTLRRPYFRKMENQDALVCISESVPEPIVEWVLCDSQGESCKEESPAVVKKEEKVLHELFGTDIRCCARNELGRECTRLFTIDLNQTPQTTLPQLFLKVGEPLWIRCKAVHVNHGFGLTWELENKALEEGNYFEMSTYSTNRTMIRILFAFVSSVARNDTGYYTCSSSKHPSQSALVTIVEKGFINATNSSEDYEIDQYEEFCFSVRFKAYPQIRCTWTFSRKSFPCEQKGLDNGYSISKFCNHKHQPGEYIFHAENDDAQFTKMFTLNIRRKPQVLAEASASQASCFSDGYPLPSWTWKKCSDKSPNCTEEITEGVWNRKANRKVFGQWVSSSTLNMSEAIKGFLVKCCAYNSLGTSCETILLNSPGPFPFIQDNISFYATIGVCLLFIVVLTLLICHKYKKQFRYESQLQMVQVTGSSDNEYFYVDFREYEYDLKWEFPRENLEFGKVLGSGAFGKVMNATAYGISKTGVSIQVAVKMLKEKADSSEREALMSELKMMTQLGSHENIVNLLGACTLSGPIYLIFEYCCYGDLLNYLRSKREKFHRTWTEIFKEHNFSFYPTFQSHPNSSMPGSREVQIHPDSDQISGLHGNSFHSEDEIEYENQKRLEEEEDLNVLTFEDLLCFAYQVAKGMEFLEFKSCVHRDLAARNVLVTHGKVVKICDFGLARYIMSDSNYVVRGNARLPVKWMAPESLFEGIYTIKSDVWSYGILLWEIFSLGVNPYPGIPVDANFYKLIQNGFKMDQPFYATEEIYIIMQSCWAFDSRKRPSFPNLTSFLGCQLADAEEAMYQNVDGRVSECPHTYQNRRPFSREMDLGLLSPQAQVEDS
Excerpt: (§1) (specific activity approx. 500 cpm/pmol, concentration as required).

[2] = target: T2, FLT3 wild type (Homo sapiens, UniProt P36888); test: as above; type: biochemical; conditions: ATP 10 µM
T2 construct: purchased Reaction Biology Corp. (Kinase HotSpot service)
T2 sequence (P36888 27-993): T1 sequence (P36888 27-993 D835Y) with Y809D
Excerpt: as §1

IC50 [1] [nM]	IC50 ([2]; read-out: FLT3 IC50) [nM]	melting point [°C]	IC50 ([2]; read-out: FLT3 wild type IC50) [nM]	Compound
145	743	293 to 295	–	CN1CCC(Oc2ccc(C(=O)Nc3ccc4[nH]c(-c5ccc6cn[nH]c6c5)nc4c3)cc2C(F)(F)F)CC1 [8x, N-(2-(1H-Indazol-6-yl)-1H-benzo[d]imidazol-5-yl)-4-((1-methylpiperidin-4-yl)oxy)-3-(trifluoromethyl)benzamide]
42	145	255 to 257	–	CCN1CCN(Cc2cc(C(=O)Nc3ccc4[nH]c(-c5ccc6cn[nH]c6c5)nc4c3)cc(C(F)(F)F)c2)CC1(C)C [8y, N-(2-(1H-Indazol-6-yl)-1H-benzo[d]imidazol-5-yl)-3-((4-ethyl-3,3-dimethylpiperazin-1-yl)methyl)-5-(trifluoromethyl)benzamide]
46	66	153 to 154	65.9	CCN1CCN(c2cc(C(=O)Nc3ccc4[nH]c(-c5ccc6cn[nH]c6c5)nc4c3)cc(C(F)(F)F)c2)CC1(C)C [8z, N-(2-(1H-Indazol-6-yl)-1H-benzo[d]imidazol-5-yl)-3–(4-ethyl-3,3-dimethylpiperazin-1-yl)-5-(trifluoromethyl)benzamide]
